The values below come from paper PMC7591920, “A protein tertiary structure mimetic modulator of the Hippo signalling pathway” (Nature Communications, 2020).

A word on the Kd: it is the constant that tells how readily two partners part at equilibrium. As a reminder, the IC50 is the concentration that inhibits the measured activity by half. High values mean weaker potency, low ones greater potency.

Series [1] has as its target T1, mTEAD4 (Mus musculus, UniProt Q62296).
T1 construct: Mouse TEAD4(210–427) cDNA fused with a 6x His-tag and a 3C protease cleavage site; 6x His-tag; 3C protease cleavage site; made in house; host or cells: E. coli BL21 DE3 RIL(K+)
The experiment in a line: SPR binding to immobilised mTEAD4. The conditions noted are these: mTEAD4 amine-coupled on CM5, multi-cycle, steady-state fit 1:1 model, 10 mM HEPES 150 mM NaCl 0.05% Tween-20 pH 7.4, 0.3% DMSO, 20 °C, Fig. 1 values n = 1 replicate. On the procedure:
(§1) Sensor chips Series S CM5 (Research grade) were obtained from GE Healthcare. Prior to use, the sensor chips were equilibrated at room temperature for 15 min to prevent water condensation on the detector side of the sensor chip surface. A running buffer was prepared composed of 10 mM HEPES, 150 mM NaCl, and 0.05% (w/v) Tween-20, pH 7.4, and the system was equilibrated at 20 °C using a flow rate of 30 µL min^−1 after docking of the sensor chip. Ligand binding experiments have been performed applying the concept of multi-cycle kinetics. A contact time of 45 s was selected, followed by a 6-min dissociation phase to allow for complete dissociation of the analyte prior to the next cycle. […] Typically, seven concentrations of the analytes have been examined applying a threefold dilution pattern with 30 µM as top concentration. For the analysis, five running buffer blanks were injected to equilibrate the instrument. […] The carboxyl-dextran surface was activated for 7 min with 0.05 M NHS and 0.2 M EDC, followed by an injection of the proteins in 10 mM MES pH 6.4 at a concentration of 30–50 µg mL^−1. […] This was followed by a deactivation of the residual esters by injecting a solution of 0.5 M ethanolamine pH 8.0 for 7 min before engaging in ligand binding experiments. Reference surfaces were prepared accordingly, omitting the injection of protein over the activated reference surface.

A further series concerns the target T2, GST-hTEAD1 (Homo sapiens, UniProt P28347).
T2 construct: CDNA of hTEAD1(209–426) fused with an N-terminal GST tag; made in house; host or cells: Escherichia coli BL21 DE3 RIL(K+)
The series can be described thus: SPR binding to immobilised GST-hTEAD1. The conditions noted are these: GST-hTEAD1 amine-coupled on CM5, multi-cycle, steady-state fit 1:1 model, 10 mM HEPES 150 mM NaCl 0.05% Tween-20 pH 7.4, 0.3% DMSO, 20 °C, Fig. 1 values n = 1 replicate. On the procedure:
as §1
In general terms: Surface plasmon resonance follows binding to a sensor surface in real time, without labels.

In series [2] the target is T1, mTEAD4. The series can be described thus: Competition fluorescence polarization with mTEAD4 (alanine scan). Format: binding. As to conditions: Ac-peptide vs FITC-labelled tracer peptide 10 nM, mTEAD4 400 nM, 1 h. On the procedure:
Competition FP: N-terminally acetylated peptides were diluted 1:1 in a 384-well plate (5 μL, 75 μM−9 pM). Ten microlitres of a mixture (1:1) of mTEAD4 and FITC-labelled peptide was added (final concentrations: acetylated peptides = 50 μM−6 pM; mTEAD4 protein = 400 nM; FITC-labelled tracer peptide = 10 nM). After 1 h, FP was measured (λ(ex) = […]). IC50 was determined from the binding curve with GraphPad from Prism.

The nature of series [3]: Circular dichroism, calculated helicity. Format: physicochemical. As to conditions: 10 mM sodium phosphate pH 7.4, 75 to 10 µM peptide, CDNN software PEPFIT mode, unbound peptide. On the procedure: The spectra were obtained using a Jasco J-715 and a cuvette 0.1 mm. Represented CD spectra are an average of five measurements done between λ = 190 and 300 nm with a continuous scan mode, 50 nm min^−1 scan speed and data point every 1 nm. The α-helicity was calculated using CDNN software using the PEPFIT mode[42].

In another series the target is T3, hTEAD1 (Homo sapiens, UniProt P28347).
T3 construct: CDNA of hTEAD1(209–426) fused with an N-terminal GST tag; GST (N); 6x His-tag (N); 3C protease cleavage site (N); made in house; host or cells: Escherichia coli BL21 DE3 RIL(K+)
T3 sequence (P28347 209-426): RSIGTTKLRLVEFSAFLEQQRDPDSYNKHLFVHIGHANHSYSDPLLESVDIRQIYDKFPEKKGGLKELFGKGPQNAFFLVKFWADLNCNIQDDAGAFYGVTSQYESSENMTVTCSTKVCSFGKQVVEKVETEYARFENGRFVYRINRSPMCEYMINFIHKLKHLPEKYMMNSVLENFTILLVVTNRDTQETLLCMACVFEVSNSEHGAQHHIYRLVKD
The experiment in a line: Direct fluorescence polarization with hTEAD1. It counts as binding. As to conditions: direct FP, fluorescent cofactor 10 nM titrated with hTEAD1, 1 h; triplicates; read-out: FP hTEAD1 Kd of FITC labelled cofactor. On the procedure:
Supplementary Figure 15│ Binding studies of hTEAD1 by fluorescence polarization. Dissociation constants were measured […]
The fluorescent cofactor (10 nM) are directly titrated with hTEAD1. After 1 hour of incubation, fluorescence polarization was measured, and a non-linear fitting was applied to the curves to determine the […]
In the competitive binding assay, first a complex with the fluorescent cofactor (10 nM) and hTEAD1 (100 nM) was formed and after 1 hour of incubation, the unlabelled peptide was titrated. After 1 hour of incubation, fluorescence polarization was measured, and a non-linear fitting was applied to the curves to determine the half maximal inhibitory concentration. (c) Competition assay […]
Mean ± SEM of triplicates were plotted for all data. Source data are provided as a Source Data file.
(1 picture or pasted object on this page, not shown here)
For orientation: Fluorescence polarisation rises when a labelled molecule tumbles more slowly, as on binding a larger partner.

Bridge positions count the residues as written; N and C are the ends. Peptide text beside a SMILES is read from it. A value given as a limit tells only on which side of the number the result lay.

T1 sequence (Q62296 210-427): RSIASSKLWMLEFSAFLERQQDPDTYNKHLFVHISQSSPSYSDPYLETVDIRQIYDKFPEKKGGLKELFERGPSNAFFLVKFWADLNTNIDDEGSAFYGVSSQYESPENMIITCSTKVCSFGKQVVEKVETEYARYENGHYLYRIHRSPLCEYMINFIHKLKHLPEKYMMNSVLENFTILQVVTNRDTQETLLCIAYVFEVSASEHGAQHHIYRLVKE
T2 sequence (P28347 209-426): as the sequence (P28347 209-426) above

`CC[C@H](C)[C@@H]1NC(=O)[C@H](CCC(N)=O)NC(=O)[C@H](CC(C)C)NC(=O)[C@H](Cc2c[nH]c3ccccc23)NC(=O)[C@H]([C@@H](C)O)NC(=O)[C@H](CC(=O)O)NC(=O)CNC(=O)[C@H](CC(C)C)NC(=O)[C@H](C)NC(=O)[C@H](CCCCN)NC(=O)[C@H](C)NC(=O)[C@H](C)NC(=O)[C@H](Cc2c[nH]cn2)NC(=O)[C@H](CC(=O)O)NC(=O)[C@@H](NC(=O)[C@@H](NC(=O)[C@H](CO)NC(C)=O)C(C)C)CCC(=O)NCCCC[C@@H](C(=O)N[C@@H](C)C(=O)N[C@@H](C)C(N)=O)NC1=O` [compound 18] (Ac-SVEDHAAKALGDTWLQIKAA-NH2; lactam 3-18): the Kd at mTEAD4 [1] and on GST-hTEAD1 was above 100 µM each time. Further, the concentration for half-maximal inhibition (IC50) at mTEAD4 [2] is above 50 µM.

For `CC(=O)N[C@@H](CO)C(=O)N[C@H](C(=O)N[C@@H](CC(=O)O)C(=O)N[C@@H](CC(=O)O)C(=O)N[C@@H](Cc1c[nH]cn1)C(=O)N[C@@H](Cc1ccccc1)C(=O)N[C@@H](C)C(=O)N[C@@H](CCCCN)C(=O)N[C@@H](C)C(=O)N[C@@H](CC(C)C)C(=O)NCC(N)=O)C(C)C` [compound 5] (Ac-SVDDHFAKALG-NH2), the dissociation constant Kd on mTEAD4 [1] and on GST-hTEAD1 was above 100 µM in each case. For the same molecule, the “Helicity (CD)” value in series [3] is listed as below 5%.

On to `CC[C@H](C)[C@@H]1NC(=O)[C@H](CCC(N)=O)NC(=O)[C@H](CC(C)C)NC(=O)[C@H](Cc2c[nH]c3ccccc23)NC(=O)[C@H](C)NC(=O)[C@H](CC(=O)O)NC(=O)CNC(=O)[C@H](CC(C)C)NC(=O)[C@H](C)NC(=O)[C@H](CCCCN)NC(=O)[C@H](C)NC(=O)[C@H](Cc2ccccc2)NC(=O)[C@H](Cc2c[nH]cn2)NC(=O)[C@H](CC(=O)O)NC(=O)[C@@H](NC(=O)[C@@H](NC(=O)[C@H](CO)NC(C)=O)C(C)C)CCC(=O)NCCCC[C@@H](C(=O)N[C@@H](C)C(=O)N[C@@H](C)C(N)=O)NC1=O` [compound 22] (Ac-SVEDHFAKALGDAWLQIKAA-NH2; lactam 3-18), for which, at mTEAD4 [1], the affinity, expressed as Kd, was 113 ± 3.5 µM. Also, at mTEAD4 [2], the IC50 was above 100 µM.

Take `CC[C@H](C)[C@@H]1NC(=O)[C@H](CCC(N)=O)NC(=O)[C@H](CC(C)C)NC(=O)[C@H](Cc2c[nH]c3ccccc23)NC(=O)[C@H]([C@@H](C)O)NC(=O)[C@H](CC(=O)O)NC(=O)CNC(=O)[C@H](CC(C)C)NC(=O)[C@H](C)NC(=O)[C@H](CCCCN)NC(=O)[C@H](C)NC(=O)[C@H](Cc2ccccc2)NC(=O)[C@H](C)NC(=O)[C@H](CC(=O)O)NC(=O)[C@@H](NC(=O)[C@@H](NC(=O)[C@H](CO)NC(C)=O)C(C)C)CCC(=O)NCCCC[C@@H](C(=O)N[C@@H](C)C(=O)N[C@@H](C)C(N)=O)NC1=O` [compound 17] (Ac-SVEDAFAKALGDTWLQIKAA-NH2; lactam 3-18): the Kd at mTEAD4 [1] and at GST-hTEAD1 was above 100 µM each time. The IC50 on mTEAD4 [2] is above 100 µM.

As for “Ac-DPVVEEHFRRSLGKNYKEPEPAPNSVSITGSVDDHFAKALGDTWLQIKAAKDSA-NH2 (N-terminus and C-terminus assumed) [compound 1]”, the Kd at mTEAD4 [1] is 2 µM; on GST-hTEAD1, 1.4 µM; at hTEAD1, 0.017 ± 0.0025 µM.

With `CC[C@H](C)[C@@H]1NC(=O)[C@H](CCC(N)=O)NC(=O)[C@H](CC(C)C)NC(=O)[C@H](Cc2c[nH]c3ccccc23)NC(=O)[C@H]([C@@H](C)O)NC(=O)[C@H](C)NC(=O)CNC(=O)[C@H](CC(C)C)NC(=O)[C@H](C)NC(=O)[C@H](CCCCN)NC(=O)[C@H](C)NC(=O)[C@H](Cc2ccccc2)NC(=O)[C@H](Cc2c[nH]cn2)NC(=O)[C@H](CC(=O)O)NC(=O)[C@@H](NC(=O)[C@@H](NC(=O)[C@H](CO)NC(C)=O)C(C)C)CCC(=O)NCCCC[C@@H](C(=O)N[C@@H](C)C(=O)N[C@@H](C)C(N)=O)NC1=O` [compound 21] (Ac-SVEDHFAKALGATWLQIKAA-NH2; lactam 3-18), the Kd on mTEAD4 [1] and at GST-hTEAD1 was above 100 µM each time. At mTEAD4 [2], this molecule had a half-inhibitory concentration (IC50) above 100 µM.

In the case of `CC[C@H](C)[C@@H]1NC(=O)[C@H](CCC(N)=O)NC(=O)[C@H](CC(C)C)NC(=O)[C@H](C)NC(=O)[C@H]([C@@H](C)O)NC(=O)[C@H](CC(=O)O)NC(=O)CNC(=O)[C@H](CC(C)C)NC(=O)[C@H](C)NC(=O)[C@H](CCCCN)NC(=O)[C@H](C)NC(=O)[C@H](Cc2ccccc2)NC(=O)[C@H](Cc2c[nH]cn2)NC(=O)[C@H](CC(=O)O)NC(=O)[C@@H](NC(=O)[C@@H](NC(=O)[C@H](CO)NC(C)=O)C(C)C)CCC(=O)NCCCC[C@@H](C(=O)N[C@@H](C)C(=O)N[C@@H](C)C(N)=O)NC1=O` [compound 23] (Ac-SVEDHFAKALGDTALQIKAA-NH2; lactam 3-18), binding on mTEAD4 [1] was characterised by a dissociation constant (Kd) of 15 ± 0.85 µM. The same molecule returned an IC50 at mTEAD4 [2] above 50 µM.

As for `CC[C@H](C)[C@@H]1NC(=O)[C@H](CCC(N)=O)NC(=O)[C@H](CC(C)C)NC(=O)[C@H](Cc2c[nH]c3ccccc23)NC(=O)[C@H]([C@@H](C)O)NC(=O)[C@H](CC(=O)O)NC(=O)CNC(=O)[C@H](C)NC(=O)[C@H](C)NC(=O)[C@H](CCCCN)NC(=O)[C@H](C)NC(=O)[C@H](Cc2ccccc2)NC(=O)[C@H](Cc2c[nH]cn2)NC(=O)[C@H](CC(=O)O)NC(=O)[C@@H](NC(=O)[C@@H](NC(=O)[C@H](CO)NC(C)=O)C(C)C)CCC(=O)NCCCC[C@@H](C(=O)N[C@@H](C)C(=O)N[C@@H](C)C(N)=O)NC1=O` [compound 20] (Ac-SVEDHFAKAAGDTWLQIKAA-NH2; lactam 3-18), the dissociation constant Kd at mTEAD4 [1] and on GST-hTEAD1 was above 100 µM each time. Further, the half-inhibitory concentration (IC50) on mTEAD4 [2] was above 100 µM.
